Results from US20060057104A1, “Methods for stimulating tlr irf3 pathways for inducing anti-microbial, anti-inflammatory and anticancer responses” (THE Regents of the University of California Office of the …, priority 2002, published 2006).

Tested on: RAW 264.7 murine macrophage cell line
Experiment: Apoptosis by TUNNEL assay in RAW 264.7 cells, laser scanner cytometry
Assay type: cell-based
Settings: RAW 264.7, two 24 h intervals; 10 ng/ml Lipid A or 10 mg/ml poly I:C
Experimental: The RAW 264.7 murine macrophage cell line was treated for two 24 h intervals with media alone (control), 10 ng/ml Lipid A (Lipid A) or 10 mg/ml poly I:C. In addition, as a positive control for apoptosis, another set of cells was treated with 3% H2O2 for 2 hours. Following fixation and permeablization, apoptosis was measured by the TUNNEL assay using the Death kit (Roche). Apoptotic cells are visualized by an increase in fluorescence (FITC) and detected by laser scanner cytometry (LSC). […] The cell cycle is divided into G1 (red), S-phase (yellow) and G2/M (blue). Thus, TLR3/4 activation promotes apoptosis at all stages of the cell cycle (FIG. 16).

Substance | increase in apoptotic cells [fold]
poly I:C | 100
lipid A | 10
